Data set [1] deals with CYP3A. As to the kind of experiment: CYP inhibition, human liver microsomes. Particulars: substrate midazolam. A general note: Microsomes from liver hold many membrane-bound enzymes, among them those of drug oxidation.
Data set [2] can be described thus: Brain penetration study in CD1 mice. It is filed as in vivo. The following applies: CD1, mouse, intraperitoneal, 10 mg/kg.
Data set [3] concerns C57BL/6J mice. In words: Amphetamine-induced hyperactivity, open field activity. Particulars: 3 mg/kg AMPH; for AMPH-stimulated hyperlocomotion at 20 mg/kg: 20 mg/kg ip; for AMPH-stimulated hyperlocomotion: 10 or 20 mg/kg ip, relative to Veh–AMPH group.
The target of data set [4] is hERG (Homo sapiens, UniProt Q12809). In words: hERG inhibition, CHO cells, automated patch-clamp. Format: cell-based. For orientation: hERG is a cardiac potassium channel; its block is linked to QT prolongation.
hERG (Homo sapiens, UniProt Q12809), sequence (Q12809 whole entry): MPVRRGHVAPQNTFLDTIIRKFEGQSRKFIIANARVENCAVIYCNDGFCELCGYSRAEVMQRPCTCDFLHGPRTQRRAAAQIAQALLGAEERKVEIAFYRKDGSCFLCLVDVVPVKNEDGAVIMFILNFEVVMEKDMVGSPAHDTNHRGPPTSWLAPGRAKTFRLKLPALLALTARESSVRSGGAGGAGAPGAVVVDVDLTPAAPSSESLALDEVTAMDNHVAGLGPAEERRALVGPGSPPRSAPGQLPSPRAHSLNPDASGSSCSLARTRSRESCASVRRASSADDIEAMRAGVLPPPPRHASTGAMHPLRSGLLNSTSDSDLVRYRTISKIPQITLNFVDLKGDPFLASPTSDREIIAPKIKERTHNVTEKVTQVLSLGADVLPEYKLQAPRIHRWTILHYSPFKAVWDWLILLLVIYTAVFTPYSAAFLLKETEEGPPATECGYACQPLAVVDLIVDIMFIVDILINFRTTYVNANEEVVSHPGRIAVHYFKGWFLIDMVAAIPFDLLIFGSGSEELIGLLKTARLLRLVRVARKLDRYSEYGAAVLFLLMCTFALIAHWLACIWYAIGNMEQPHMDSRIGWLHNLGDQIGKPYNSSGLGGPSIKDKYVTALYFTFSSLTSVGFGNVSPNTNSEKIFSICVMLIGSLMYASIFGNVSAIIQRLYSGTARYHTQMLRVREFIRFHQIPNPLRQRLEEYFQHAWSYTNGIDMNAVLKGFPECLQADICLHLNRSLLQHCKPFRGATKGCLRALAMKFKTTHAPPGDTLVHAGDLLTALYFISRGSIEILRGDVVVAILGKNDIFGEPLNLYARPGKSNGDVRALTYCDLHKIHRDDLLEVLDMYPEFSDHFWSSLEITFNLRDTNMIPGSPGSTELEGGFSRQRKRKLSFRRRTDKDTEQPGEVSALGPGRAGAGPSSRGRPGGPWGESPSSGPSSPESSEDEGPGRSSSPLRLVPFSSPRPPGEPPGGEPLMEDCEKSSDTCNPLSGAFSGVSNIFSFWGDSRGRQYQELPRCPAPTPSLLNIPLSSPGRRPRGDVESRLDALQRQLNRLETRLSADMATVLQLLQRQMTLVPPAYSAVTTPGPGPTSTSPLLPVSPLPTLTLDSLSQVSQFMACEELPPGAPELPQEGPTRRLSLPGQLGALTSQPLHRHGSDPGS
Data set [5] deals with TA98, TA100, TA1535, and TA1537 strains. Format: cell-based. Particulars: with/without S9, 10, 50, and 100 µM.
For data set [6], the target named is T1, human 5-HT2B (Homo sapiens, UniProt P41595). In words: Calcium flux. In general terms: A change in cytosolic calcium serves as a functional read-out for many receptors and channels.
T1 sequence (P41595 whole entry): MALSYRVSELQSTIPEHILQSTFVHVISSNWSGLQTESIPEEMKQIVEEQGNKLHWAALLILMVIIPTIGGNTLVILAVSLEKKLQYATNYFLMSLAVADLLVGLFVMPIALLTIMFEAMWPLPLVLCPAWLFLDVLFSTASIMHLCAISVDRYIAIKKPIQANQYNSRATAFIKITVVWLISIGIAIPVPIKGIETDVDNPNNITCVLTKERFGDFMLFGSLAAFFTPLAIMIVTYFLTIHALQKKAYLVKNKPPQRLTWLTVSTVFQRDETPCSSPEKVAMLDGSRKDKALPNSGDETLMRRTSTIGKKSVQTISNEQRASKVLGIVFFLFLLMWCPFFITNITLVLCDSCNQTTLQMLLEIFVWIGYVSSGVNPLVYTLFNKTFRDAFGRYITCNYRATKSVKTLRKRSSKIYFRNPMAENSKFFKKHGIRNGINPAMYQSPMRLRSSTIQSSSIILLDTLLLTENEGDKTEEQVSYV
For data set [7], the target named is T2, 5-HT2C receptor (Homo sapiens, UniProt P28335).
T2 sequence (P28335 33-458): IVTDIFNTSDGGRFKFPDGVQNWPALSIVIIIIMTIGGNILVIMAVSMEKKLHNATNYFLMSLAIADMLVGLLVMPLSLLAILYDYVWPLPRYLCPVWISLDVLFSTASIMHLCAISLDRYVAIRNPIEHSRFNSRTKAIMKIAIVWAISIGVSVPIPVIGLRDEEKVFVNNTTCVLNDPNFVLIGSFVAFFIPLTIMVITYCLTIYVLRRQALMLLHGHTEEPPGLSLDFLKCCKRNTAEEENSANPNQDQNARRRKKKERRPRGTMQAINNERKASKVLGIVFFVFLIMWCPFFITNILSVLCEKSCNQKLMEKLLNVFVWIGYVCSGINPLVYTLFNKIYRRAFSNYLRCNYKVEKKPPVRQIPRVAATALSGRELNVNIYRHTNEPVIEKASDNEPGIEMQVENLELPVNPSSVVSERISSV
As to the kind of experiment: PDSP binding study, 5-HT2C.

Data set [8] addresses T1, human 5-HT2B. In words: PDSP binding study, 5-HT2B.
Data set [9] addresses human 5-HT2A (Homo sapiens, UniProt P28223). As to the kind of experiment: Calcium flux. The following applies: from functional EC50 values.
Data set [10] addresses T1, human 5-HT2B. The following applies: cited from earlier work.
The conditions of data set [11]: cited from earlier work.
For data set [12], the system named is hERG. The following applies: previous studies; cited from earlier work.
Data set [13] deals with 5-HT2A. Particulars: cited from earlier work.
For data set [14] the following is noted: clinical trials, compared to placebo group; cited from earlier work.

Entries after “also recorded” stand apart in the source; their conditions may differ. Bounds are passed on as bounds.

human 5-HT2A, sequence (P28223 whole entry): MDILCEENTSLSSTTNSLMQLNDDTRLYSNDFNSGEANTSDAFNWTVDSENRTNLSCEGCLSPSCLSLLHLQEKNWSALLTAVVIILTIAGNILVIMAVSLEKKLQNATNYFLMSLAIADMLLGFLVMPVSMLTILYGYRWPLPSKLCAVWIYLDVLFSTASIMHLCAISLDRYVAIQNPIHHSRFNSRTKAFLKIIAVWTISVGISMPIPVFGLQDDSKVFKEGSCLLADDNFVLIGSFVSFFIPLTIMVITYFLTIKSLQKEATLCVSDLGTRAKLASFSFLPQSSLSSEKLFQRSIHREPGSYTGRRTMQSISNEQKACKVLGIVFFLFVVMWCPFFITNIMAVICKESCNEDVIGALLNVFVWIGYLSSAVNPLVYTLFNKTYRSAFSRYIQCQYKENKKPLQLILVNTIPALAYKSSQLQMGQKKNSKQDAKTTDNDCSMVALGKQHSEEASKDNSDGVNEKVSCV

`C=CCOc1ccc(Cl)cc1[C@H]1C[C@@H]1CN.O=C(O)C(F)(F)F` [(+)-13h]: in data set [1], the “CYP inhibition at 10 µM, 3A” value was found to be 27%.
With `C=C(F)COc1ccc(Cl)cc1[C@H]1C[C@@H]1CN.Cl` [(+)-13j], in [2] (brain), the concentration at 0.5 h was 17500 ng/g and the concentration at 2 h was 14700 ng/g. In [2] (plasma), this compound registered a concentration at 0.5 h of 1440 ng/mL and a concentration at 2 h of 903 ng/mL. In data set [3], the “AMPH-stimulated hyperlocomotion at 20 mg/kg” value is “most efficacious” and the AMPH-stimulated hyperlocomotion result is “dose dependently suppressed the hyperactivity”. In addition, in [4], the “hERG IC50” value is “moderate inhibition”. Moreover, the Ames fluctuation test result in data set [5] is reported as “negative”.
For orientation: EC50 means the concentration at which the effect is half-maximal. Usually Emax stands for the greatest response seen or fitted, relative to the assay's reference. On to `C=C(C)COc1ccc(Cl)cc1[C@H]1C[C@@H]1CN` [(+)-13k], for which, in data set [6], the EC50 came to 6.09 µM. Also, the Emax in data set [6] (read-out: Emax 5-HT2B, normalized to internal 5-HT reference) came out at 39%.
`Cl.NC[C@H]1C[C@@H]1c1cc(Cl)ccc1OCCF` [(+)-13l]: in data set [2] (brain), the concentration at 0.5 h was 12800 ng/g and the concentration at 2 h was 13400 ng/g. In data set [2] (plasma), this compound came in with a concentration at 0.5 h of 1200 ng/mL and a concentration at 2 h of 874 ng/mL. In addition, the AMPH-stimulated hyperlocomotion entry in [3] is on record as “not differentiated by dose”.
As a reminder, the Ki is a dissociation constant, usually derived from enzyme kinetics or from competition with a known ligand. A lower Ki goes with higher affinity. In turn, `C=CCOc1ccc(F)cc1[C@H]1C[C@@H]1CN.Cl` [(+)-16b, (+)-((1S,2S)-2-(2-(Allyloxy)-5-fluorophenyl)cyclopropyl)-methanamine Hydrochloride] had a Ki in [7] of 30 to 50 nM. Further, the Ki in [8] lay in the range of 30 to 50 nM. Moreover, in data set [3], the “AMPH-stimulated hyperlocomotion at 20 mg/kg” value is listed as “most efficacious; also recorded: completely reversed” and the AMPH-stimulated hyperlocomotion entry was “dose dependently suppressed the hyperactivity”.
Consider `Cl.NC[C@H]1C[C@@H]1c1cc(F)ccc1OCCF` [(+)-16d, (+)-((1S,2S)-2-(5-Fluoro-2-(2-fluoroethoxy)phenyl)-cyclopropyl)methanamine Hydrochloride], for which the Ki in [7] and in data set [8] was 30 to 50 nM in each case. In data set [3], the AMPH-stimulated hyperlocomotion entry was “not differentiated by dose”. In data set [9], the “selectivity for 5-HT2C against 5-HT2A” value was > 100 fold.
For the compound `Clc1cccc(COc2cncc(N3CCNCC3)n2)c1` [CP-809,101, 2-(3-chlorobenzyloxy)-6-(piperazinyl)-pyrazine], in [10], the “5-HT2C selectivity against 5-HT2B” value is on record as “about 600 fold”. Besides, the genotoxicity entry in data set [11] is listed as “genotoxicity”.
`NC[C@H]1C[C@@H]1c1cc(F)ccc1OCC1CC1` [Compound 8]: the hERG inhibition entry in [12] is recorded as “no hERG inhibition”.
`c1cc2c3c(c1)[C@H]1CCC[C@H]1N3CCNC2` [WAY-163909, (7bR,10aR)-1,2,3,4,8,9,10,10a–octahydro-7bH-cyclopenta-[b][1,4]diazepino[6,7,1-hi]indole]: the “agonist activity at 5-HT2A” value in data set [13] is “no agonist activity”.
Take `C[C@H]1CNCCc2ccc(Cl)cc21` [lorcaserin]: in [14], the “incidence of cardiac valve disorders” value was “higher incidence of cardiac valve disorders”.

These data come from paper PMC4834193 (Journal of medicinal chemistry, 2015).
